Measured values reported in patent US9936701B2, “Herbicidal compounds” (Syngenta Participations AG, priority 2013, dated 2018).

Columns and labels:
[1] = tested on: a variety of test species; test: Pre-emergence herbicidal activity (glasshouse, sprayed one day after sowing, evaluated after 13 days); assay type: in vivo; set-up: key: 5=total damage to plant; 0=no damage to plant; details: application pre-emergence, rate 1000 g/Ha, scale 0-5
In short: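 Seeds sown in standard soil in pots, held one day in glasshouse (24/16 °C day/night, 14 h light, 65% humidity), then sprayed with aqueous solution of compound formulated in acetone/water 50:50 with 0.5% Tween 20. Grown on under same conditions, watered twice daily; damage scored after 13 days (0 = none, 5 = total).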

[2] = tested on: a variety of test species; test: Post-emergence herbicidal activity (glasshouse, sprayed after 8 days cultivation, evaluated after 13 days); assay type: in vivo; set-up: key: 5=total damage to plant; 0=no damage to plant; details: rate 1000 g/Ha, scale 0-5
In short: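 Pot-grown seedlings sprayed 8 days after sowing with active ingredient in acetone/water (50:50) plus 0.5% Tween 20. Glasshouse at 24/16 °C day/night, 14 h light, 65% humidity, watered twice daily. Damage scored after 13 days on a 0–5 scale (5 = total damage, 0 = none).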

melting point [°C] | SMILES | Pre-emergence herbicidal damage score, ABUTH [1] | Pre-emergence herbicidal damage score, ALOMY [1] | Pre-emergence herbicidal damage score, AMARE [1] | Pre-emergence herbicidal damage score, ECHCG [1] | Pre-emergence herbicidal damage score, SETFA [1] | Pre-emergence herbicidal damage score, ZEAMX [1] | ABUTH (Abutilon theophrasti) damage score, application post-emergence [2] | ALOMY (Alopecurus myosuroides) damage score, application post-emergence [2] | AMARE (Amaranthus retroflexus) damage score, application post-emergence [2] | ECHCG (Echinochloa crus-galli) damage score, application post-emergence [2] | SETFA (Setaria faberi) damage score, application post-emergence [2] | ZEAMX (Zea mays) damage score, application post-emergence [2]
179 to 180 | CC(C)(C)c1cc(N2C(=O)C(Cl)=C(NC3CC3)C2O)no1 (stereo not drawn) [C8] | 5 | 3 | 5 | 5 | 3 | 2 | 5 | 4 | 5 | 5 | 5 | 4
82 to 95 | COC1=C(C)C(O)N(c2cc(C(C)(C)C)on2)C1=O (stereo not drawn) [D1, 1-(5-tert-butylisoxazol-3-yl)-2-hydroxy-4-methoxy-3-methyl-2H-pyrrol-5-one] | 5 | 4 | 5 | 4 | 5 | 2 | 5 | 4 | 5 | 5 | 5 | 4
98 to 100 | COC1=C(C)C(O)N(c2noc(C(C)(C)C)c2C#N)C1=O (stereo not drawn) [D2, 5-tert-butyl-3-(2-hydroxy-4-methoxy-3-methyl-5-oxo-2H-pyrrol-1-yl)isoxazole-4-carbonitrile] | 5 | 3 | 5 | 4 | 5 | 3 | 5 | 5 | 5 | 5 | 5 | 4
99 to 101 | COC1=C(C)C(O)N(c2noc(C(C)C)c2C#N)C1=O (stereo not drawn) [D3] | 4 | 3 | 5 | 5 | 5 | 2 | 5 | 5 | 5 | 5 | 5 | 4
123 to 125 | COC1=C(C)C(O)N(c2cc(C(C)(C)C#N)on2)C1=O (stereo not drawn) [D4] | 5 | 4 | 5 | 5 | 5 | 3 | 5 | 5 | 5 | 5 | 5 | 5
79 to 81 | CCC(C)(C)c1onc(N2C(=O)C(OC)=C(C)C2O)c1C#N (stereo not drawn) [D5] | 5 | 4 | 5 | 5 | 5 | 2 | 5 | 5 | 5 | 5 | 5 | 5
